Results on 11 molecules are retold here after patent publication EP0739882B1, “Novel aconitine compounds and analgesic/anti-inflammatory agent containing the same” (SANWA SHOYAKU KABUSHIKI KAISHA, priority 1991, dated 1993).

Series [1] is described as follows: Property and solubility (qualitative solubility in solvents). The note with it: for Solubility: solvents in which insoluble: hexane and water. It is filed as physicochemical.
Series [2] can be described thus: Acute toxicity (LD50, s.c.). Further details: species or system mice. The note with it: mouse, in vivo, sc, mortality during 72 hours, Litchfield-Wilcoxon, read-out: LD50 value, mg/kg (95 % confidence limits). The procedure: Experiment example 3 (Acute toxicity)
Male mice of the Std:ddY Strain (20 - 25g) were used. The LD50 values were calculated using the method of Litchfield-Wilcoxon from the mortality during 72 hours after test compound was administered s.c. The results are shown in Table 3.

Series [3] deals with Male mice of the Std:ddY Strain. Briefly: Analgesic activity by the acetic acid-induced writhing method. The class given is in vivo. The note with it: Mus musculus; test compound s.c. 30 minutes before 0.7 % acetic acid i.p.; writhing counted for 10 minutes; Litchfield-Wilcoxon; 95 % confidence limits in brackets. The procedure: Experiment example 1 (Analgesic action)
Measurement of analgesic activity by the acetic acid-induced writhing method.
Male mice of the Std:ddY Strain (20 - 25g) were used. All mice were maintained at room temperature of 24 - 25 °C on a 12 hours light and dark cycle and were given food and water ad libitum. Test compound was used in 3 % suspension in gum arabic, 0.7 % acetic acid in 0.9 % physiological saline solution was injected i.p. (10ml / kg) at 30 minutes after test compound was administered s.c. After 10 minutes, the number of writhing movements was counted for a period of 10 minutes. 3 % gum arabic solution in 0.9 % physiological saline solution was used as a negative control. The ED50 values were calculated in accordance with the Litchfield-Wilcoxon's method based on judging to be positive in case of half and under the writhing number of negative control group.

On to 3,8-dideoxy-14-O-m-chlorobenzoylaconine, for which, in series [1], the “Solubility: solvents in which soluble” value is “Soluble in ether, chloroform, benzene, ethanol, methanol, ethylacetate, pyridine and dimethyl sulfoxide”; the “Solubility: solvents in which insoluble” value was “Insoluble in hexane and water”.
As for “3,13-dideoxy-14-O-m-chlorobenzoylaconine”, in series [1], the “Solubility: solvents in which soluble” value was “Soluble in ether, chloroform, benzene, ethanol, methanol, ethylacetate, pyridine and dimethyl sulfoxide”; the “Solubility: solvents in which insoluble” value was “Insoluble in hexane and water”.
As to 3-deoxy-14-O-m-chlorobenzoylaconine, in series [1], the “Solubility: solvents in which soluble” value is “Soluble in ether, chloroform, benzene, ethanol, methanol, ethylacetate, pyridine and dimethyl sulfoxide”; the “Solubility: solvents in which insoluble” value is “Insoluble in hexane and water”.
Consider 14-O-m-chlorobenzoylaconine, for which, in series [1], the “Solubility: solvents in which soluble” value is “Soluble in ether, chloroform, benzene, ethanol, methanol, ethylacetate, pyridine and dimethyl sulfoxide”; the “Solubility: solvents in which insoluble” value is “Insoluble in hexane and water”.
In the case of `CCN1CC2(COC)CCC(OC)C34C5CC6C(OC)C(O)C(C5C6OC(=O)c5cccc(Cl)c5)C(C(OC)C23)C14` (stereo not shown) [3,8,13-trideoxy-14-O-m-chlorobenzoylaconine], in series [1], the “Solubility: solvents in which soluble” value is “Soluble in ether, chloroform, benzene, ethanol, methanol, ethylacetate, pyridine and dimethyl sulfoxide”; the “Solubility: solvents in which insoluble” value is “Insoluble in hexane and water”.
In general, ED50 refers to the dose that gives a 50% effect, or the effect in half of the subjects. Consider `CCN1CC2(COC)CCC(OC)C34C5CC6C(OC)C(=O)C(C5C6OC(=O)c5cccc(Cl)c5)C(C(OC)C23)C14` (stereo not drawn) [3,13-dideoxy-14-O-m-chlorobenzoyl-16-epi-pyroaconine], for which, in series [1], the “Solubility: solvents in which soluble” value was “Soluble in ether, chloroform, benzene, ethanol, methanol, ethylacetate, pyridine and dimethyl sulfoxide”; the “Solubility: solvents in which insoluble” value was “Insoluble in hexane and water”. Further, the LD50 at 72 h in series [2] was above 20 mg/kg. The same molecule returned an ED50 in series [3] of 11 mg/kg.
With `CCN1CC2(COC)CCC(OC)C34C5CC6(O)C(OC)C(=O)C(C5C6OC(=O)c5cccc(Cl)c5)C(C(OC)C23)C14` (stereo not drawn) [3-deoxy-14-O-m-chlorobenzoyl-16-epi-pyroaconine], in series [1], the “Solubility: solvents in which soluble” value was “Soluble in ether, chloroform, benzene, ethanol, methanol, ethylacetate, pyridine and dimethyl sulfoxide”; the “Solubility: solvents in which insoluble” value was “Insoluble in hexane and water”. Also, in series [2], the LD50 at 72 h is above 20 mg/kg. In series [3], this molecule came in with an ED50 of 10.1 mg/kg.
`CCN1CC2(COC)C(O)CC(OC)C34C5CC6(O)C(OC)C(=O)C(C5C6OC(=O)c5cccc(Cl)c5)C(C(OC)C23)C14` (stereo not drawn) [14-O-m-chlorobenzoyl-16-epi-pyroaconine]: in series [1], the “Solubility: solvents in which soluble” value was “Soluble in ether, chloroform, benzene, ethanol, methanol, ethylacetate, pyridine and dimethyl sulfoxide”; the “Solubility: solvents in which insoluble” value is “Insoluble in hexane and water”. Further, the LD50 at 72 h in series [2] is above 20 mg/kg. In addition, the 50% effect level in series [3] (ED50) was put at a dose of 11.9 mg/kg.
With `CCN1CC2(COC)C(O)CC(OC)C34C5CC6(O)C(OC)C(O)C(O)(C5C6OC(=O)c5ccc(Br)cc5)C(C(OC)C23)C14` (stereo not shown) [14-O-p-bromobenzoylaconine], in series [1], the “Solubility: solvents in which soluble” value was “Soluble in ether, chloroform, benzene, ethanol, methanol, acetone, ethylacetate, pyridine and dimethyl sulfoxide”; the “Solubility: solvents in which insoluble” value was “Insoluble in hexane and water”. Besides, in series [2], the LD50 at 72 h was above 30 mg/kg. This molecule showed an ED50 in series [3] of 6.42 mg/kg.
Regarding `COCC12CN(C)C3C4C(OC)C1C3(C(OC)CC2O)C1CC2(O)C(OC)C(O)C4(O)C1C2OC(=O)c1ccc(Cl)cc1` (stereo not shown) [14-O-p-chlorobenzoylmesaconine], in series [1], the “Solubility: solvents in which soluble” value was “Soluble in ether, chloroform, benzene, ethanol, methanol, acetone, ethylacetate, pyridine and dimethyl sulfoxide”; the “Solubility: solvents in which insoluble” value was “Insoluble in hexane and water”. Besides, the LD50 at 72 h in series [2] was above 30 mg/kg. The molecule further gave an ED50 in series [3] of 5.85 mg/kg.
Take `CCN1CC2(COC)C(O)CC(OC)C34C5CC6(O)C(OC)C(O)C(O)(C5C6OC(=O)c5ccc(F)cc5)C(C(OC)C23)C14` (stereo not shown) [14-O-p-fluorobenzoylaconine]: in series [1], the “Solubility: solvents in which soluble” value is “Soluble in ether, chloroform, benzene, ethanol, methanol, acetone, ethylacetate, pyridine and dimethyl sulfoxide”; the “Solubility: solvents in which insoluble” value was “Insoluble in hexane and water”. For the same molecule, the LD50 at 72 h in series [2] is above 30 mg/kg. Also, the 50% effective dose (ED50) in series [3] worked out at 8.26 mg/kg.
